Laboratory results reported in patent publication US9914760B2, “Methods of identifying, isolating and using odorant and aroma receptors” (Firmenich SA, priority 2013, dated 2018).

Tests used:
Assay in all cases: cell-based calcium-flux assay, HEK293T with Gα15
OR11G2 = biological target: T1, OR11G2 (Homo sapiens, UniProt Q8NGC1); details: increasing concentrations; FIG. 6C
T1 construct: expressed in transfected cells
T1 sequence (Q8NGC1 35-345): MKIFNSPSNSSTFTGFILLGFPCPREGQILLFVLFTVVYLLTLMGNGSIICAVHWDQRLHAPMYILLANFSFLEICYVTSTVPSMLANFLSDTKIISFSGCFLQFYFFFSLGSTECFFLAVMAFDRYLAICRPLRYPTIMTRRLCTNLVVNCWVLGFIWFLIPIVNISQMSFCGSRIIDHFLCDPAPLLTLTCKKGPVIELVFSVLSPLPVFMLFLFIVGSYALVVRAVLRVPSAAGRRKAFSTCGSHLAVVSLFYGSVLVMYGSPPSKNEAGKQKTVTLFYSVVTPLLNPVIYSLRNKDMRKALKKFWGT
Text: (§1) The activity of candidate human indole and skatole malodors receptors OR52N2 (SEQ ID NO: 11 and SEQ ID NO: 12), OR11G2 (SEQ ID NO: 13 and SEQ ID NO: 14, OR5AC2 (SEQ ID NO: 75 and SEQ ID NO: 76), OR4C15 (SEQ ID NO: 79 and SEQ ID NO: 80), OR8S1 (SEQ ID NO: 83 and SEQ ID NO: 84), OR11H6 (SEQ ID NO: 15 and SEQ ID NO: 16) and OR11H4 (SEQ ID NO: 49 and SEQ ID NO: 50) and candidate mouse indole and skatole malodors receptors Olfr665 (SEQ ID NO: 9 and SEQ ID NO 10) and Olfr740 (SEQ ID NO: 1 and SEQ ID NO 2) were confirmed in cell-based calcium-flux assays (FIGS. 6A to 6J). Cells stably co-expressing Rho-tagged human OR52N2 (FIG. 6A, B) or OR11G2 (FIG. 6C) and Gα15 (SEQ ID NO: 25) were exposed to increasing concentrations of skatole or indole. FIG. 6B is a repeat experiment showing similar activity of OR52N2 with indole and skatole. Odorant-induced OR52N2 or OR11G2 activity was detected by measuring the maximum Calcium 5 dye (Molecular Devices) fluorescence change following odorant exposure. Activity is defined as the baseline corrected Relative Fluorescent Units (RFU) ratios normalized to the highest RFU in the experiment in FIG. 6A. […] A cell line lacking a receptor, for example hOR52N2, was used as a control for non-specific activity at high concentrations (‘Indole control’ and ‘Skatole control’). The human receptor OR52N2 (SEQ ID NO: 11 and SEQ ID NO: 12) was identified because of its sequence similarity to mouse Olfr665 (SEQ ID NO: 10), an indole/skatole receptor isolated from olfactory neurons responding to both indole and skatole. The human receptor OR11G2 (SEQ ID NO: 13 and SEQ ID NO: 14) was identified because of its sequence similarity to mouse Olfr740 (SEQ ID NO: 2), an indole/skatole receptor isolated from olfactory neurons responding to both indole and skatole. The receptors were modified with the Rho sequence and stably expressed in HEK 293T cells. Further examples show indole and skatole dose-response curves for human receptors OR5AC2, OR4C15, OR8S1, OR11H6, OR11H4 and mouse receptors Olfr665 and Olfr740 (FIG. 6D-J). The human receptor OR5AC2 (SEQ ID NO: 75 and SEQ ID NO: 76) was identified because of its sequence similarity to mouse Olfr207 (SEQ ID NO: 78), a receptor isolated from olfactory neurons responding to both indole and skatole. The human receptor OR4C15 (SEQ ID NO: 79 and SEQ ID NO: 80) was identified because of its sequence similarity to mouse Olfr211 (SEQ ID NO: 82), a receptor isolated from olfactory neurons responding to both indole and skatole. The human receptor OR8S1 (SEQ ID NO: 83 and SEQ ID NO: 84) was identified because of its sequence similarity to mouse Olfr257 (SEQ ID NO: 86), a receptor isolated from olfactory neurons responding to both indole and skatole. The human receptor OR11H6 (SEQ ID NO: 15 and SEQ ID NO: 16) was identified because of its sequence similarity to mouse Olfr745 (SEQ ID NO: 8), a receptor isolated from olfactory neurons responding to both indole and skatole. The human receptor OR11H4 (SEQ ID NO: 49 and SEQ ID NO: 50) was identified because of its sequence similarity to mouse Olfr746 (SEQ ID NO: 38), a receptor isolated from olfactory neurons responding to both indole and skatole. The mouse receptor Olfr665 (SEQ ID NO: 9 and SEQ ID NO: 10) was identified directly from NGS data from isolated olfactory neurons responding to both indole and skatole. The mouse receptor Olfr740 (SEQ ID NO: 1 and SEQ ID NO: 2) was identified directly from NGS data from isolated olfactory neurons responding to both indole and skatole. Co-expression of the human G alpha subunit Gα15 activates the Gq transduction pathway that leads to an internal Ca2+ increase upon binding to the appropriate ligand.

OR11H4 = biological target: T2, OR11H4 (Homo sapiens, UniProt Q8NGC9); details: dose-response curves FIG. 6D-J
T2 construct: expressed in transfected cells
T2 sequence (Q8NGC9 1-324): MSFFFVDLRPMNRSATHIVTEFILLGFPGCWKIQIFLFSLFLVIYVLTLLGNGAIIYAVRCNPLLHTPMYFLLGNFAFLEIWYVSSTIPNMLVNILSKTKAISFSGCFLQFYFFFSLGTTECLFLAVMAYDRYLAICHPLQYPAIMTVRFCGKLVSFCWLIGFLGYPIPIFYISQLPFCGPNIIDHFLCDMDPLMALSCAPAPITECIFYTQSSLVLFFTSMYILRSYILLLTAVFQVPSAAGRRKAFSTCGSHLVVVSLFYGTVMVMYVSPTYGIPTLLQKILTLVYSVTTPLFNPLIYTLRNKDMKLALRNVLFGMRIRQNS
Text: as §1

OR11H6 = biological target: T3, OR11H6 (Homo sapiens, UniProt Q8NGC7); details: dose-response curves FIG. 6D-J
T3 construct: expressed in transfected cells
T3 sequence (Q8NGC7 1-330): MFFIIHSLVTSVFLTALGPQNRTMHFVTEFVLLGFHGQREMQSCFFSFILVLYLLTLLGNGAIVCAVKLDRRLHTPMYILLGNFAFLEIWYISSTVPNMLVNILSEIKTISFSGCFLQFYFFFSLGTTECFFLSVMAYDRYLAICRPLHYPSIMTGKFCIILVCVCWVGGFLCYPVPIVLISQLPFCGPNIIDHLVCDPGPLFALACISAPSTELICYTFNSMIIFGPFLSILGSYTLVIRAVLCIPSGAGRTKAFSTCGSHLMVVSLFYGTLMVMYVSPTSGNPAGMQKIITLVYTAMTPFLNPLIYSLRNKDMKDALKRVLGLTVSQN
Text: as §1

OR4C15 = biological target: T4, OR4C15 (Homo sapiens, UniProt Q8NGM1); details: dose-response curves FIG. 6D-J
T4 construct: expressed in transfected cells
T4 sequence (Q8NGM1 with tags, fused parts or gaps): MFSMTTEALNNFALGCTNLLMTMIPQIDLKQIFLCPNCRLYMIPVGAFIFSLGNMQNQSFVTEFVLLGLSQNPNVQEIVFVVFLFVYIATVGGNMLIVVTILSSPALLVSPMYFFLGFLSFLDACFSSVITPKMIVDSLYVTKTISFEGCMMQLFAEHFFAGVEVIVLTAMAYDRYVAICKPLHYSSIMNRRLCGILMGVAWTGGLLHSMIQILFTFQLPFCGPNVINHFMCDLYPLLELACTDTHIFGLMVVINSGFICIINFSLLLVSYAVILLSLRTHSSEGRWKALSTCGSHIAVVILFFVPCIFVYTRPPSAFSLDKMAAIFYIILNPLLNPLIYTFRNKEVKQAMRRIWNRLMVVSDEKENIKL
Text: as §1

SMILES	receptor activity (Calcium 5 dye fluorescence change) (OR11G2)	receptor response in vitro (OR11H4)	receptor response in vitro (OR11H6)	receptor response in vitro (OR4C15)
c1ccc2[nH]ccc2c1 [indole]	dose-dependent increase of receptor activity	responded	responded	responded
Cc1c[nH]c2ccccc12 [skatole, 3-methyl indole]	dose-dependent increase of receptor activity	responded	responded	responded
